Here are results for 3 compounds from publication PMC3345137 (Toxicology and Applied Pharmacology, 2011).

Assay [1] has as its target T1, Human recombinant CES2 (Carboxylesterase 2) (Homo sapiens, UniProt O00748).
T1 sequence (O00748 27-559): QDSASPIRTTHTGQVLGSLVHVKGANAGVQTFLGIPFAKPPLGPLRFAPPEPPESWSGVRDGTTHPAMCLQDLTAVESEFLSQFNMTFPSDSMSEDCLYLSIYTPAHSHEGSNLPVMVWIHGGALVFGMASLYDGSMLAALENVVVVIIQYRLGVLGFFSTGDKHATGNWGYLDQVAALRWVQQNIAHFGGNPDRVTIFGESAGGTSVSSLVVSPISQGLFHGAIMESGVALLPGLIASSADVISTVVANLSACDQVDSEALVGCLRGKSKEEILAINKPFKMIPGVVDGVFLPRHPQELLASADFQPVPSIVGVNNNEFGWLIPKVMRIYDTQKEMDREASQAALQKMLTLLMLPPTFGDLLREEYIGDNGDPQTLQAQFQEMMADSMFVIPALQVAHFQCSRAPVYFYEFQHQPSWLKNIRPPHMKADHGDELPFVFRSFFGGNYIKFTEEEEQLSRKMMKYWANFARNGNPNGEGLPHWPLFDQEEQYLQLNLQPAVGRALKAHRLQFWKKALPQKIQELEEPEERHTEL
In kind it is biochemical.

For assay [2], the target named is porcine liver carboxylesterase. The conditions noted are these: 25°C, ref Quistad and Casida, 2000; cited from earlier work.
The target of assay [3] is T2, Human recombinant CES1 (Carboxylesterase 1) (Homo sapiens, UniProt P23141).
T2 sequence (P23141 18-567): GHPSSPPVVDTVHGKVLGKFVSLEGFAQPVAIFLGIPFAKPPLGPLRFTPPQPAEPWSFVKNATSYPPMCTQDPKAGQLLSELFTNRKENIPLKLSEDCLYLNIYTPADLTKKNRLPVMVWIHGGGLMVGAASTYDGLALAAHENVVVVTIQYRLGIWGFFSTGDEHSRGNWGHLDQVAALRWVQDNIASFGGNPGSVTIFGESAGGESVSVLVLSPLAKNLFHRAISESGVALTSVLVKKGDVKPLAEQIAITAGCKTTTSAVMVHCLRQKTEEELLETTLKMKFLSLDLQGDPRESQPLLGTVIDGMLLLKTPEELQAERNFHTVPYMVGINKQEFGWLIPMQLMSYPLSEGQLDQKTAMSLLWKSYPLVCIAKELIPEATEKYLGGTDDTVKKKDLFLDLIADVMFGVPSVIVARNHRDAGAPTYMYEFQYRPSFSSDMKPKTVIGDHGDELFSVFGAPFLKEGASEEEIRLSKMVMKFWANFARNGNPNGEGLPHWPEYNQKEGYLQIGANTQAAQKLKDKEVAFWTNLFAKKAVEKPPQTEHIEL
In kind it is biochemical. As to conditions: Michaelis constant of substrate pNPV with CES1, no inhibitor.

The target in assay [4] is T3, Human recombinant MGL (Monoacylglycerol lipase) (Homo sapiens, UniProt Q99685).
T3 sequence (Q99685 1-303): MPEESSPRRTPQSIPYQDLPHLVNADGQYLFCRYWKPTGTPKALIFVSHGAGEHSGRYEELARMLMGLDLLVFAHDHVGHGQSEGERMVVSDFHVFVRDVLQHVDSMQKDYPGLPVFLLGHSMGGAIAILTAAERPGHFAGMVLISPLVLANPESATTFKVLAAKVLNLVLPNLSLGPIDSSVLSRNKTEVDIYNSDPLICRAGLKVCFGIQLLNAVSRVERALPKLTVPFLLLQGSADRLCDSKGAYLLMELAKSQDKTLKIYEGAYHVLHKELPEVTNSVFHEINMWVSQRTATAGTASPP
In kind it is biochemical. The conditions noted are these: Michaelis constant of substrate pNPV with MGL, no inhibitor.

For a further assay, the target named is T4, Rat hydrolase A (Rattus norvegicus, UniProt P16303).
T4 sequence (P16303 19-565): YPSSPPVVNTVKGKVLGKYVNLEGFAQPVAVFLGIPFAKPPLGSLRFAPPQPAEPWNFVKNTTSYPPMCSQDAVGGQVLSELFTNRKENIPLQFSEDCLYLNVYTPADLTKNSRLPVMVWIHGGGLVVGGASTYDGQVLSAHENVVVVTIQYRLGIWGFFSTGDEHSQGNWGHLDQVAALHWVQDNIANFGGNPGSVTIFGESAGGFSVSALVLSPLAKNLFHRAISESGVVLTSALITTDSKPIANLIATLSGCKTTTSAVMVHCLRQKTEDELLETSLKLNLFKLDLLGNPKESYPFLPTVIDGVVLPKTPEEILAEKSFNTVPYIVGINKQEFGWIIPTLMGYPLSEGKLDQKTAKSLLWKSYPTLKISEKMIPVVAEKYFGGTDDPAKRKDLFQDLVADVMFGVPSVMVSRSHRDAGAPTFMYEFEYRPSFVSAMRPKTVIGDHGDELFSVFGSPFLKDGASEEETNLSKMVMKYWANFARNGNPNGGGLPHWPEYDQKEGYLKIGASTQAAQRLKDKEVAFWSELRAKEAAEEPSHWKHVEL
In kind it is biochemical.

In assay [5] the test system is recombinant human butyrylcholinesterase. As to conditions: experimental, ref Amitai et al., 1998; cited from earlier work.
In assay [6] the test system is recombinant human acetylcholinesterase. The conditions noted are these: experimental, ref Amitai et al., 1998; cited from earlier work.
In a further assay the test system is butyrylcholinesterase. The conditions noted are these: purified butyrylcholinesterase; ref Shenouda et al., 2009; cited from earlier work.

For `CCOP(=O)(OCC)Oc1ccc([N+](=O)[O-])cc1` [Paraoxon], in assay [1] (CES2, single representative experiment, calculated with Equation (4)), the “true bimolecular rate constant” value was 29000 M⁻¹ s⁻¹. Besides, in assay [1] (CES2, single representative experiment, pNPV 500 µM, 37°C), the “apparent bimolecular rate constant (ki’= kinact/KI’)” value turned out to be 4400 M⁻¹ s⁻¹. Also, in assay [2], the IC50 (commonly the concentration that inhibits the measured activity by half) is 3 nM.

Consider `CCCCC(=O)Oc1ccc([N+](=O)[O-])cc1` [pNPV, para-Nitrophenyl valerate], for which the Km (usually the substrate concentration at which the rate is half of its maximum) in assay [3] stood at 136 ± 40 µM; in assay [1] (Michaelis constant of substrate pNPV with CES2, no inhibitor), 90 ± 12 µM; in assay [4] it was 158 ± 37 µM; on Rat hydrolase A (Michaelis constant of substrate pNPV with rat hydrolase A, no inhibitor), 32.6 µM.

In the case of `CCOP(=O)(OCC)Oc1nc(Cl)c(Cl)cc1Cl` [Chlorpyrifos Oxon, Chlorpyrifos oxon], the bimolecular rate constant is 3.3e+06 M⁻¹ s⁻¹ at Rat hydrolase A (rat hydrolase A purified from rat liver), 2.78e+07 M⁻¹ s⁻¹ in assay [5], 167000 M⁻¹ s⁻¹ in assay [6] and 8.47e+08 M⁻¹ s⁻¹ in the assay with butyrylcholinesterase. Besides, the IC50 in assay [2] is 2 nM.
